Source: US6770596B1, “Fused tricyclic compounds, process for their preparation, and herbicidal compositions containing them” (Ishihara Sangyo Kaisha Ltd., priority 2002, dated 2004)

Tests used:
Format in all cases: in vivo
[1] = test system: soybean (Glycine max L., var. Pella 86, SOY); assay: Post-emerge test, crop damage soybean
In short: (§1)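 Scores use a 0-100 visual scale, where 100 is complete plant death, rated 14 days post-treatment. Foliar application at 8-1000 g ai/ha, acetone solution at 187 l/ha with 0.25% v/v non-ionic surfactant. Plants grown 8-21 days, typically 2-3 leaf stage.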

[2] = test system: common ragweed (Ambrosia artemisiifolia L., AML); assay: Pre-emerge test, common ragweed; conditions: 250 g ai/ha, 14 days after application, rating scale 0-100 (0 no damage, 100 complete death)
In short: (§2)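 Scores at 14 days after treatment use a 0–100 scale, where 0 is no damage and 100 is death of all plants. Treatments were acetone solutions sprayed at 8–1000 g ai/ha onto soil sown one day prior.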

[3] = test system: cocklebur (Xanthium strumariunt, XAS); assay: Post-emerge test, cocklebur; conditions: 250 g ai/ha, 14 days after application, rating scale 0-100 (0 no damage, 100 complete death)
In short: as §1

[4] = test system: velvetleaf (Abutilon theophrasti, ABT); assay: Pre-emerge test, velvetleaf; conditions: 250 g ai/ha, 14 days after application, rating scale 0-100 (0 no damage, 100 complete death)
In short: as §2

[5] = test system: ivyleaf morningglory (Ipomoea hederacea, IPH); assay: Post-emerge test, ivyleaf morningglory; conditions: 250 g ai/ha, 14 days after application, rating scale 0-100 (0 no damage, 100 complete death)
In short: as §1

[6] = test system: upland rice (Oryza sp., var.Tebonnet, RICE); assay: Pre-emerge test, crop damage upland rice
In short: (§3)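 Seeds planted 1 day pre-application in sandy loam soil mix; acetone solutions sprayed at 8 to 1000 g ai/ha (187 l/ha, flat fan nozzle, track sprayer). 14 d later, visual damage scored on a 0–100 scale.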

[7] = test system: barnyardgrass (Echinachloa crus-galli, ECC); assay: Pre-emerge test, barnyardgrass; conditions: 250 g ai/ha, 14 days after application, rating scale 0-100 (0 no damage, 100 complete death)
In short: as §2

[8] = test system: large crabgrass (Digitaria sanguinalis, DIS); assay: Pre-emerge test, large crabgrass; conditions: 250 g ai/ha, 14 days after application, rating scale 0-100 (0 no damage, 100 complete death)
In short: as §2

[9] = test system: green foxtail (Setaria viridis, SEV); assay: Pre-emerge test, green foxtail; conditions: 250 g ai/ha, 14 days after application, rating scale 0-100 (0 no damage, 100 complete death)
In short: as §2

[10] = test system: sicklepod (Cassia obtusifolia, CAO); assay: Pre-emerge test, sicklepod; conditions: 250 g ai/ha, 14 days after application, rating scale 0-100 (0 no damage, 100 complete death)
In short: as §2

[11] = test system: velvetleaf (Abutilon theophrasti, ABT); assay: Post-emerge test, velvetleaf; conditions: 250 g ai/ha, 14 days after application, rating scale 0-100 (0 no damage, 100 complete death)
In short: as §1

[12] = test system: johnsongrass (Sorghum halepense, SOH); assay: Post-emerge test, johnsongrass; conditions: 250 g ai/ha, 14 days after application, rating scale 0-100 (0 no damage, 100 complete death)
In short: as §1

[13] = test system: green foxtail (Setaria viridis, SEV); assay: Post-emerge test, green foxtail; conditions: 250 g ai/ha, 14 days after application, rating scale 0-100 (0 no damage, 100 complete death)
In short: as §1

[14] = test system: sicklepod (Cassia obtusifolia, CAO); assay: Post-emerge test, sicklepod; conditions: 250 g ai/ha, 14 days after application, rating scale 0-100 (0 no damage, 100 complete death)
In short: as §1

[15] = test system: field corn (Zea mays L., var. Dekalb 535, CORN); assay: Post-emerge test, crop damage field corn
In short: as §1

[16] = test system: common ragweed (Ambrosia artemisiifolia L., AML); assay: Post-emerge test, common ragweed; conditions: 250 g ai/ha, 14 days after application, rating scale 0-100 (0 no damage, 100 complete death)
In short: as §1

[17] = test system: large crabgrass (Digitaria sanguinalis, DIS); assay: Post-emerge test, large crabgrass; conditions: 250 g ai/ha, 14 days after application, rating scale 0-100 (0 no damage, 100 complete death)
In short: as §1

[18] = test system: wheat (Triticum aestivum); assay: Post-emerge test, crop damage wheat
In short: as §1

[19] = test system: wheat (Triticum aestivum); assay: Pre-emerge test, crop damage wheat
In short: as §3

[20] = test system: barnyardgrass (Echinachloa crus-galli, ECC); assay: Post-emerge test, barnyardgrass; conditions: 250 g ai/ha, 14 days after application, rating scale 0-100 (0 no damage, 100 complete death)
In short: as §1

[21] = test system: redroot pigweed (Amaranthus retroflexus, AMR); assay: Pre-emerge test, redroot pigweed; conditions: 250 g ai/ha, 14 days after application, rating scale 0-100 (0 no damage, 100 complete death)
In short: as §2

[22] = test system: lambsquarters (Chenopodium album, CHA); assay: Pre-emerge test, lambsquarters; conditions: 250 g ai/ha, 14 days after application, rating scale 0-100 (0 no damage, 100 complete death)
In short: as §2

[23] = test system: cocklebur (Xanthium strumariunt, XAS); assay: Pre-emerge test, cocklebur; conditions: 250 g ai/ha, 14 days after application, rating scale 0-100 (0 no damage, 100 complete death)
In short: as §2

[24] = test system: soybean (Glycine max L., var. Pella 86, SOY); assay: Pre-emerge test, crop damage soybean
In short: as §3

[25] = test system: lambsquarters (Chenopodium album, CHA); assay: Post-emerge test, lambsquarters; conditions: 250 g ai/ha, 14 days after application, rating scale 0-100 (0 no damage, 100 complete death)
In short: as §1

[26] = test system: upland rice (Oryza sp., var.Tebonnet, RICE); assay: Post-emerge test, crop damage upland rice
In short: as §1

[27] = test system: redroot pigweed (Amaranthus retroflexus, AMR); assay: Post-emerge test, redroot pigweed; conditions: 250 g ai/ha, 14 days after application, rating scale 0-100 (0 no damage, 100 complete death)
In short: as §1

[28] = test system: field corn (Zea mays L., var. Dekalb 535, CORN); assay: Pre-emerge test, crop damage field corn
In short: as §3

[29] = test system: ivyleaf morningglory (Ipomoea hederacea, IPH); assay: Pre-emerge test, ivyleaf morningglory; conditions: 250 g ai/ha, 14 days after application, rating scale 0-100 (0 no damage, 100 complete death)
In short: as §2

[30] = test system: johnsongrass (Sorghum halepense, SOH); assay: Pre-emerge test, johnsongrass; conditions: 250 g ai/ha, 14 days after application, rating scale 0-100 (0 no damage, 100 complete death)
In short: as §2

[31] = post-emerge, 250 g ai/ha, 14 days after application, rating scale 0-100 (0 no damage, 100 complete death)
[32] = pre-emerge, 250 g ai/ha, 14 days after application, rating scale 0-100 (0 no damage, 100 complete death)
[33] = var. Pella 86, Glycine max (soybean), in vivo, 14 days
[34] = var. Tebonnet, Oryza sp. (upland rice), in vivo, 14 days
[35] = var. Dekalb 535, Zea mays (field corn), in vivo, 14 days
[36] = Triticum aestivum (wheat), in vivo, 14 days

SMILES	Pre-emerge Herbicidal Activity AML (phytotoxicity rating) [2]	Post-emerge Herbicidal Activity XAS (phytotoxicity rating) [3]	Pre-emerge Herbicidal Activity ABT (phytotoxicity rating) [4]	Post-emerge Herbicidal Activity IPH (phytotoxicity rating) [5]	Pre-emerge Herbicidal Activity ECC (phytotoxicity rating) [7]	Pre-emerge Herbicidal Activity DIS (phytotoxicity rating) [8]	Pre-emerge Herbicidal Activity SEV (phytotoxicity rating) [9]	Pre-emerge Herbicidal Activity CAO (phytotoxicity rating) [10]	Post-emerge Herbicidal Activity ABT (phytotoxicity rating) [11]	Post-emerge Herbicidal Activity SOH (phytotoxicity rating) [12]	Post-emerge Herbicidal Activity SEV (phytotoxicity rating) [13]	Post-emerge Herbicidal Activity CAO (phytotoxicity rating) [14]	Post-emerge Herbicidal Activity AML (phytotoxicity rating) [16]	Post-emerge Herbicidal Activity DIS (phytotoxicity rating) [17]	Post-emerge Herbicidal Activity ECC (phytotoxicity rating) [20]	Pre-emerge Herbicidal Activity AMR (phytotoxicity rating) [21]	Pre-emerge Herbicidal Activity CHA (phytotoxicity rating) [22]	Pre-emerge Herbicidal Activity XAS (phytotoxicity rating) [23]	Post-emerge Herbicidal Activity CHA (phytotoxicity rating) [25]	Post-emerge Herbicidal Activity AMR (phytotoxicity rating) [27]	further results
Cn1nc(-c2c(F)cc3c4c2NC(=O)C(Cl)N4C(=O)CO3)c(Cl)c1OC(F)F (stereo not drawn) [1-79]	99	0	75	60	35	80	15	60	75	0	65	0	80	0	25	100	100	65	65	70	Post-emerge crop damage SOY (phytotoxicity rating) [1, 31]: 0; Pre-emerge crop damage RICE (phytotoxicity rating) [6, 32]: 30; Post-emerge crop damage CORN (phytotoxicity rating) [15, 31]: 0; Post-emerge crop damage WHEAT (phytotoxicity rating) [18, 31]: 0; Pre-emerge crop damage WHEAT (phytotoxicity rating) [19, 32]: 30; Pre-emerge crop damage SOY (phytotoxicity rating) [24, 32]: 40; Post-emerge crop damage RICE (phytotoxicity rating) [26, 31]: 0; Pre-emerge crop damage CORN (phytotoxicity rating) [28, 32]: 30; Pre-emerge Herbicidal Activity IPH (phytotoxicity rating) [29]: 60; Pre-emerge Herbicidal Activity SOH (phytotoxicity rating) [30]: 50
Cn1nc(-c2c(F)cc3c4c2NC(=O)CN4C(=O)C(C)(C)O3)c(Cl)c1OC(F)F [1-59]	100	100	100	100	99	99	100	99	100	65	99	70	80	99	99	100	100	60	100	100	Post-emerge crop damage SOY (phytotoxicity rating) [1, 31]: 45; Pre-emerge crop damage RICE (phytotoxicity rating) [6, 32]: 50; Post-emerge crop damage CORN (phytotoxicity rating) [15, 31]: 10; Post-emerge crop damage WHEAT (phytotoxicity rating) [18, 31]: 35; Pre-emerge crop damage WHEAT (phytotoxicity rating) [19, 32]: 45; Pre-emerge crop damage SOY (phytotoxicity rating) [24, 32]: 15; Post-emerge crop damage RICE (phytotoxicity rating) [26, 31]: 55; Pre-emerge crop damage CORN (phytotoxicity rating) [28, 32]: 40; Pre-emerge Herbicidal Activity IPH (phytotoxicity rating) [29]: 85; Pre-emerge Herbicidal Activity SOH (phytotoxicity rating) [30]: 100
Cn1nc(-c2c(F)cc3c4c2NC(=O)C(C)(C)N4C(=O)CO3)c(Cl)c1C(F)(F)F [1-15, 8-[4-Chloro-1-methyl-5-(trifluoromethyl)-1H-pyrazol-3-yl]-5,5-dimethyl-9-fluoro-5H-pyrazino[1,2,3-de]-1,4-benzoxazine-3,6(2H, 7H)-dione]	100	100	100	100	100	100	100	100	100	55	99	99	98	50	99	100	100	100	100	100	Post-emerge crop damage SOY (phytotoxicity rating) [1, 33]: 100; Pre-emerge crop damage RICE (phytotoxicity rating) [6, 34]: 40; Post-emerge crop damage CORN (phytotoxicity rating) [15, 35]: 35; Post-emerge crop damage WHEAT (phytotoxicity rating) [18, 36]: 50; Pre-emerge crop damage WHEAT (phytotoxicity rating) [19, 36]: 90; Pre-emerge crop damage SOY (phytotoxicity rating) [24, 33]: 50; Post-emerge crop damage RICE (phytotoxicity rating) [26, 34]: 80; Pre-emerge crop damage CORN (phytotoxicity rating) [28, 35]: 60; Pre-emerge Herbicidal Activity IPH (phytotoxicity rating) [29]: 100; Pre-emerge Herbicidal Activity SOH (phytotoxicity rating) [30]: 100
